Molecules are shown by their SMILES.

The subject of test [1] is Caki-1 cells. As to the kind of experiment: Cancer cell death verification (MTT cell viability). In kind it is cell-based.
Procedure: 3×10^3 Brain cancer (U-87MG), lung cancer (H1975), pancreatic cancer (Aspc-1), liver cancer (Hep G2), breast cancer (MDA-MB-231), colon cancer (HCT116), kidney cancer (Caki-1), gastric cancer (SNU-1) and ovarian cancer (OVCAR-3) cells were cultured in a 96-well plate under conditions of 37° C. and 5% CO2 for 24 hours, and then each cancer cell was treated with ADP-ribose at each concentration. After culturing for 24 hours under conditions of 37° C. and 5% CO2 again, 10 μl of 3-(4,5-dimethylthiazol-2-yl)-2,5-diphenyltetrazolium bromide reagent was added to each well and reacted for 1 hour. After the reaction was completed, the reagent was removed, 200 μl of dimethyl sulfoxide was added to each well, and the absorbance was measured to determine the concentration of half-lethality and maximum lethality compared to untreated cells.
Then, 10 μl of 3-(4,5-dimethylthiazol-2-yl)-2,5-diphenyltetrazolium bromide reagent was added to each well and reacted for 1 hour. After the reaction was completed, the reagent was removed, 200 μl of dimethyl sulfoxide was added to each well, and the absorbance was measured to confirm cell viability.
In test [2] the test system is Pancreatic cancer (AsPC-1) cells. As to the kind of experiment: Xenograft model, oral ADP-ribose, tumor volume. In kind it is in vivo, BALB/c nude mice. The following applies: AsPC-1 xenograft, 5 times a week, control about 3194.3. The procedure: (§1) Pancreatic cancer (AsPC-1) or kidney cancer (Caki-1) cells (1×10^7 cells) were inoculated into 5-week-old BALB/c nude mice on the back flank, and the mice were grown up to approximately 150 mm^3 of the tumor volume. Then, three concentrations of ADP-ribose were administered subcutaneously, intravenously, and orally 3 times a week. The tumor size was measured every 6 days using a digital caliper, and the changes in tumor volume were compared for each group.
Pancreatic cancer (AsPC-1) cells (1×10^7) were inoculated into 5-week-old BALB/c nude mice on the back flank, and the mice were divided into four groups: the control group (Control) and groups administered orally with 10, 40, and 80 mg/kg of ADP-ribose. When the tumors were grown to a volume of approximately 150 mm^3, each concentration of ADP-ribose was orally administered 5 times a week. The tumor size was measured using a digital caliper, and the results of changes in tumor volume were compared by the group.

Test [3] has as its system Caki-1 cells. As to the kind of experiment: Change over time in intracellular ADP-ribose, radiation versus ADP-ribose treatment (ELISA). In kind it is cell-based. The following applies: Caki-1, 16 μM ADP-ribose, even after 24 hours; after radiation back to untreated level from 8 hours. The procedure:
Brain cancer (U-87MG), kidney cancer (Caki-1), pancreatic cancer (AsPC-1), or breast cancer (MDA-MB-231) cells were cultured in a 6-well plate, respectively, and the cells were divided into the untreated group, the radiation-treated group, and the ADP-ribose-treated group. Irradiation was performed using an X-Rad 320 irradiator (Precision X-ray, North Branford, CT, USA), and cancer cells were treated with a total of 1, 2, and 5 Gy at a dose rate of 300 kVp and 150 cGy/min using an X-ray beam filter composed of 12.5 mA and 2.0 mm Al, respectively. Before treatment and at 4, 8, 16, and 24 hours after treatment, the medium was removed, the cells were washed with phosphate-buffered saline, and then RIPA buffer was added and the products were left on ice for 20 minutes. After scraping the cells, the cells were put in a centrifuge tube and centrifuged for 10 minutes at 10,000 g and 4° C. The supernatant was obtained, and 1% SDS was added, and then the reaction product was boiled at 100° C. for 5 minutes and cooled on ice. The supernatant was centrifuged again at 10,000 g and 4° C. for 10 minutes to obtain the final supernatant, and ADP-ribose was quantitatively analyzed using an ELISA analysis kit (Cell Biolabs, Inc., San Diego, CA, USA). […]

Test [4] deals with MDA-MB-231 cells. As to the kind of experiment: Transwell metastasis and invasion ability of cancer cells. The format is cell-based. The following applies: MDA-MB-231, 32 μM ADP-ribose. The procedure: (§2) Metastasis and invasion ability of cancer cells were analyzed by using a transwell having polycarbonate membrane filters with 8.0 μm pore size. The transwell was put into a 24-well plate. In each well, pancreatic cancer (Aspc-1) and breast cancer (MDA-MB-231) cells were seeded on the upper surface of the insert at a density of 3.5×10^5 cells per well, divided into the untreated group and ADP-ribose-treated groups, and cultured under conditions of 37° C. and 5% CO2 for 24 hours. After culturing, the transwell was carefully washed with sterile water and then placed in 100% methanol to fix the attached cells. After fixation, the cells were stained with hematoxylin and an eosin reagent to observe the cells, and the ratio of cells that permeated the upper surface of the insert and metastasized and invaded the lower surface, compared to the untreated group, was obtained.
(§3) Analysis was performed using a transwell having polycarbonate membrane filters with 8.0 μm pore size. […] After culturing, the transwell was carefully washed with sterile water and then placed in 100% methanol to fix the attached cells. After fixation, the cells were stained with hematoxylin and an eosin reagent to observe the cells.

Test [5] has as its system AsPC-1 cells. The test is described as above. In kind it is cell-based. The following applies: AsPC-1, 16 μM ADP-ribose. The procedure:
as §2, §3

Test [6] concerns Hep G2 cells. As to the kind of experiment: Cancer cell death verification (MTT cell viability). In kind it is cell-based.
In test [7] the test system is MDA-MB-231 cells. The test is described as above. In kind it is cell-based.
Test [8] concerns Kidney cancer (Caki-1) cells. As to the kind of experiment: Xenograft model, intravenous ADP-ribose, tumor volume. In kind it is in vivo, BALB/c nude mice. The following applies: Caki-1 xenograft, 3 times a week, control about 2074.9. The procedure:
as §1
Kidney cancer (Caki-1) cells (1×10^7) were inoculated into 5-week-old BALB/c nude mice on the back flank, and the mice were divided into 4 groups: the control group (Control) and groups injected intravenously with 2, 10, and 20 mg/kg of ADP-ribose. When the tumors were grown to a volume of approximately 150 mm^3, each concentration of ADP-ribose was […] injected 3 times a week. The tumor size was measured using a digital caliper, and the results of changes in tumor volume were compared by the group.

Test [9] deals with SNU-1 cells. As to the kind of experiment: Cancer cell death verification (MTT cell viability). The following applies: SNU-1, 32 μM ADP-ribose, 24 hours. The format is cell-based.
Procedure: 3×10^3 SNU-1 or OVCAR-3 cells were cultured in a 96-well plate for 24 hours under conditions of 37° C. and 5% CO2, treated with ADP-ribose at concentrations of 32 μM, respectively, and cultured again for 24 hours under conditions of 37° C. and 5% CO2. Then, 10 μl of 3-(4,5-dimethylthiazol-2-yl)-2,5-diphenyltetrazolium bromide reagent was added to each well and reacted for 1 hour. After the reaction was completed, the reagent was removed, 200 μl of dimethyl sulfoxide was added to each well, and the absorbance was measured to confirm cell viability.

For `Nc1ncnc2c1ncn2[C@@H]1O[C@H](COP(=O)(O)OP(=O)(O)OC[C@H]2O[C@@H](O)C(O)C2O)C(O)C1O` (stereo partly drawn) [ADP-ribose, adenosine diphosphate ribose], the “maximum lethal dose (concentration at which almost all cells were killed)” value amounted to 32 µM in [1] (Caki-1, 24 hours, MTT); 32 µM in test [6] (Hep G2, 24 hours, MTT); 32 µM in test [7] (MDA-MB-231, 24 hours, MTT). In addition, the “cancer cell growth under a microscope” value in [1] (Caki-1, ADP-ribose treated vs control, FIG. 8A) was “inhibited from growing and killed”; in test [6] (Hep G2, ADP-ribose treated vs control, FIG. 5A), “inhibited from growing and killed”; in test [7] (MDA-MB-231, ADP-ribose treated vs control, FIG. 6A), “inhibited from growing and killed”. Further, the IC50 is around 16 µM in [1] (Homo sapiens, CAKI-1, 24 h, read-out: half-lethal dose (concentration at which about half of the cells were killed)); around 4 µM in [6] (Homo sapiens, HepG2, 24 h, read-out: half-lethal dose (concentration at which about half of the cells were killed)); around 16 µM in [7] (Homo sapiens, MDA-MB-231, 24 h, read-out: half-lethal dose (concentration at which about half of the cells were killed)). Also, the final tumor volume was 1798.6 mm^3 in test [2] (10 mg/kg oral); 1175.9 mm^3 in test [2] (40 mg/kg oral); 1056.9 mm^3 in test [2] (80 mg/kg oral); 706.7 mm^3 in test [8] (2 mg/kg intravenous); 331.7 mm^3 in [8] (10 mg/kg intravenous); 227.2 mm^3 in test [8] (20 mg/kg intravenous). Also, the “amount of ADP-ribose in the cells over time compared to the control group” value in test [3] is listed as “maintained a significant (P<0.001) increase”. The “invasion and metastasis from upper to lower part of the transwell (photomicrograph)” value in [4] (24 hours, FIG. 11A) is “significantly inhibited”; in test [5] (24 hours, FIG. 10A), “significantly inhibited”. Also, the “metastasis and invasion ability, quantitatively measured, compared to the control group” value in test [4] (P<0.001, FIG. 11B) is recorded as “significantly reduced”; in [5] (P<0.001, FIG. 10B), “significantly reduced”. Besides, the “cell death compared to the control group” value in test [9] is given as “killed significantly”.

(Values after patent US20230372382A1, “USE OF ADENOSINE DIPHOSPHATE RIBOSE FOR ADJUVANT THERAPY WITH RADIATION AND/OR ANTI-CANCER TREATMENT” (PearlsInMires Co., Ltd., priority 2021, published 2023).)
